The values that follow come from patent US10654814B2, “Bicyclic hydroxamic acids useful as inhibitors of mammalian histone deacetylase activity” (KANCERA AB, priority 2015, dated 2020).

One experiment deals with HDAC1 (Homo sapiens (Human), UniProt Q13547). As to the kind of experiment: HDAC1 in vitro enzymatic assay (fluorescence). It is filed as biochemical. Particulars: Table 4 selectivity profiling. How it is done:
(§1) Biological Tests Method for Measurement of Enzymatic Activity of HDACs Materials & Methods
(§2) All Examples were tested in HDAC1,2,3,6 and 8 in vitro enzymatic assays. The assay principle is well known (Hauser et al. 2009, Bradner et al. 2010) and all necessary reagents like enzymes, substrates, developer and reference compounds are commercially available (see e.g. BPS Biosciences http://www.bpsbioscience.com/). Stock solutions (10 mM in DMSO) of compounds were serially diluted 1:3 in 11 concentrations with a top concentration of 200 μM for HDAC1,2,3 and 2 μM for HDAC6 and HDAC8. The enzymatic reactions were conducted in a mixture containing assay buffer, bovine serum albumin, HDAC substrate, and a test compound. After enzymatic reaction, developer was added and after an additional incubation time, fluorescence intensity was measured at an excitation wavelength of 360 nm and an emission wavelength of 460 nm. All experiments were performed in duplicate.

The target of a further experiment is HDAC2 (Homo sapiens (Human), UniProt Q92769). As to the kind of experiment: HDAC2 in vitro enzymatic assay (fluorescence). It counts as biochemical. Particulars: Table 4 selectivity profiling. As to the method:
as §1, §2

Another experiment deals with HDAC3 (Homo sapiens (Human), UniProt O15379). Nature of the experiment: HDAC3 in vitro enzymatic assay (fluorescence). It counts as biochemical. Particulars: Table 4 selectivity profiling. As to the method:
as §1, §2

The next experiment has as its target HDAC6 (Homo sapiens (Human), UniProt Q9UBN7). Nature of the experiment: HDAC6 in vitro enzymatic assay (fluorescence). It is filed as biochemical. The essentials:
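Fluorogenic HDAC substrate reactions contained assay buffer, BSA and compound, followed by developer. Fluorescence was read at ex 360/em 460 nm. Compounds were tested as 11-point 1:3 dilutions from a top of 200 μM for HDAC1, 2 and 3, and from 2 μM for HDAC6, in duplicate.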

For a further experiment, the target named is HDAC8 (Homo sapiens (Human), UniProt Q9BY41). Nature of the experiment: HDAC8 in vitro enzymatic assay (fluorescence). It counts as biochemical. Particulars: Table 4 selectivity profiling. How it is done:
as §1, §2

In experiment [1] the test system is U266 (multiple myeloma) cells. As to the kind of experiment: CellTiter-Blue cell viability assay, U266. It counts as cell-based. Particulars: Homo sapiens, U-266; 72 hours of treatment. As to the method: (§3) Method for Measurement of Cell Viability
(§4) The CellTiter-Blue® Cell Viability Assay (Promega) provides a homogeneous, fluorometric method for estimating the number of viable cells present in multi-well plates. The assay uses the indicator dye resazurin to measure the metabolic capacity of cells. Viable cells retain the ability to reduce resazurin into resorufin, which is highly fluorescent.
(§5) Stock solutions (10 mM in DMSO) of compounds were serially diluted 1:2 in 11 concentrations. 50 nL/well (10 mM compound stock in DMSO) was acoustically dispensed in 384-well assay plates with an acoustic dispenser (EDC Biosystems ATS-100AV). Final starting concentration in the assay was 20 μM (0.2% DMSO) for test compounds. The following cell-lines (and origin) have been primarily used: PaCa2 (pancreatic), U266 (multiple myeloma), AMO-1 (plasmacytoma), and MDA-MB-231 (breast adenocarcinoma). PBMCs (peripheral blood mononuclear cells) from healthy donors were used as control cells. Cells were seeded in assay plates (384-well black/clear, Greiner #781091) pre-dispensed with compounds, 25 μL/well, and cultured for 72 hours. After 72 hours, Celltiter Blue reagent (Promega # G8081) was diluted 1:10 with PBS and then added to wells (5 μL/well). The plates were incubated for 2 hours following addition of reagent. The plates were read in an EnVision fluorescence reader (PerkinElmer) with Ex544 nm/Em590 nm. Results were calculated as % cell viability compared to background (cells treated with 0.2% DMSO).
In general terms: Resazurin is reduced to fluorescent resorufin, in cell work by metabolically active cells.

Experiment [2] concerns AMO-1 (plasmacytoma) cells. As to the kind of experiment: CellTiter-Blue cell viability assay, AMO-1. Particulars: Homo sapiens, AMO1; 72 hours of treatment. It is filed as cell-based. As to the method: as §3, §4, §5
In the next experiment the test system is PaCa2 (pancreatic) cells. Nature of the experiment: CellTiter-Blue cell viability assay, PaCa2. It is filed as cell-based. Particulars: PaCa-2; 72 hours of treatment. As to the method:
as §3, §4, §5

The test system of experiment [3] is MDA-MB-231 (breast adenocarcinoma) cells. Nature of the experiment: CellTiter-Blue cell viability assay, MDA-MB-231. It is filed as cell-based. Particulars: Homo sapiens, 72 hours of treatment. How it is done: as §3, §4, §5
The test system of experiment [4] is PBMCs (peripheral blood mononuclear cells) from healthy donors. Nature of the experiment: CellTiter-Blue cell viability assay, healthy PBMC. It is filed as cell-based. Particulars: 72 hours of treatment. How it is done:
as §3, §4, §5

[5] abbreviates: Table 3, read-out: IC50 (nM) for inhibition of HDAC6.
Setting [6] is: Table 4 selectivity profiling, read-out: IC50 (nM) HDAC6.

The structures appear in SMILES notation. Where two headings read alike, the source gives them in different places. Bounds are passed on as bounds.

HDAC2, sequence (Q92769 whole entry): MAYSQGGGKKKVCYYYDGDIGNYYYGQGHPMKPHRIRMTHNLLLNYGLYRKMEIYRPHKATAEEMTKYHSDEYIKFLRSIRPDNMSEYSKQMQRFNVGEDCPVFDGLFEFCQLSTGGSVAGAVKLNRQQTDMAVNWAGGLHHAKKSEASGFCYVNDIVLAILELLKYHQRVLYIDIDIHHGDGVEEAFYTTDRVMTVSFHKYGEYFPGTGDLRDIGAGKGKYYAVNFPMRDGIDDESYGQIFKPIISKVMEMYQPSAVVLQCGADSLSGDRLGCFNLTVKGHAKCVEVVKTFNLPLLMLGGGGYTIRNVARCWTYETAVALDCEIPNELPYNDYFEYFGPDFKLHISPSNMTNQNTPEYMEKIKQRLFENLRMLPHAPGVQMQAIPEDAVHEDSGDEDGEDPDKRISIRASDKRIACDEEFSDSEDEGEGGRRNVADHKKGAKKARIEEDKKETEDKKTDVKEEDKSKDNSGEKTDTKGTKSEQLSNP
HDAC1, sequence (Q13547 whole entry): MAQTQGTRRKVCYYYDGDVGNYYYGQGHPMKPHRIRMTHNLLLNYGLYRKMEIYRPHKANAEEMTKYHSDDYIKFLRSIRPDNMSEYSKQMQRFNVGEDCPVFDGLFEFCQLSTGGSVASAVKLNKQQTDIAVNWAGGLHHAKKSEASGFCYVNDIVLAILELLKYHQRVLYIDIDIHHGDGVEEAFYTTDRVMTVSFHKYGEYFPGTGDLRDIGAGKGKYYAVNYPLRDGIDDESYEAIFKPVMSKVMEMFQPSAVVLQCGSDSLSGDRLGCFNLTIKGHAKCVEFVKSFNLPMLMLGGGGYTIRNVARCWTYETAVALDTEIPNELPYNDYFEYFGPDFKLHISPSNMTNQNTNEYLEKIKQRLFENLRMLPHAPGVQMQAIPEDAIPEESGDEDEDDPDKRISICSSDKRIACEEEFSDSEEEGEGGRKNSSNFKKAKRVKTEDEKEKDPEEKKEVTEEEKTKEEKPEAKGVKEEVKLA
HDAC8, sequence (Q9BY41 whole entry): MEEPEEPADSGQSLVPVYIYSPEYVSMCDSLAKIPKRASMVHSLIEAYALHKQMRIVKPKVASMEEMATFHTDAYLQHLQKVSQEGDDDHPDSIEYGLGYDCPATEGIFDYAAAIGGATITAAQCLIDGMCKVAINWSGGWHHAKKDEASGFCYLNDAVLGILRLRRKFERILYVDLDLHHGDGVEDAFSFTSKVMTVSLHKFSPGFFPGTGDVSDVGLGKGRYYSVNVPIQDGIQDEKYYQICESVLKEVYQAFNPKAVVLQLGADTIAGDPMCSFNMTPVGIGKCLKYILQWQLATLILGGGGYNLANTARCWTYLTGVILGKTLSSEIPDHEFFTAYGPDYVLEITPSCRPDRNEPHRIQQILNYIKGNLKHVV
HDAC3, sequence (O15379 whole entry): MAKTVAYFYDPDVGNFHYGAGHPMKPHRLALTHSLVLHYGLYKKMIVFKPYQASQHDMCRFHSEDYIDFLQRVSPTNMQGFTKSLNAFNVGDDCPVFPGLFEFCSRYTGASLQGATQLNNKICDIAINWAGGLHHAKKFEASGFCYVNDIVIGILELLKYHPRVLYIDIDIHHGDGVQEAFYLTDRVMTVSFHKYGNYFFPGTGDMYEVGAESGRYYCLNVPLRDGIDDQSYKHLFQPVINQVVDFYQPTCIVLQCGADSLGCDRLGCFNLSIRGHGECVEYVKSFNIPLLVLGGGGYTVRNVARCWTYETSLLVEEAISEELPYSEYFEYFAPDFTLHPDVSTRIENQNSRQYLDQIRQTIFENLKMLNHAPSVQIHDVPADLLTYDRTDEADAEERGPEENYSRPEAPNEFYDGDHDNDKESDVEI
HDAC3, sequence (Q9Y618 395-489 partner): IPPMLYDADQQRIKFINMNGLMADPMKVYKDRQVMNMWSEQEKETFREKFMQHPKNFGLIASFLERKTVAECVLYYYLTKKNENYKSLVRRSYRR
HDAC6, sequence (Q9UBN7 whole entry): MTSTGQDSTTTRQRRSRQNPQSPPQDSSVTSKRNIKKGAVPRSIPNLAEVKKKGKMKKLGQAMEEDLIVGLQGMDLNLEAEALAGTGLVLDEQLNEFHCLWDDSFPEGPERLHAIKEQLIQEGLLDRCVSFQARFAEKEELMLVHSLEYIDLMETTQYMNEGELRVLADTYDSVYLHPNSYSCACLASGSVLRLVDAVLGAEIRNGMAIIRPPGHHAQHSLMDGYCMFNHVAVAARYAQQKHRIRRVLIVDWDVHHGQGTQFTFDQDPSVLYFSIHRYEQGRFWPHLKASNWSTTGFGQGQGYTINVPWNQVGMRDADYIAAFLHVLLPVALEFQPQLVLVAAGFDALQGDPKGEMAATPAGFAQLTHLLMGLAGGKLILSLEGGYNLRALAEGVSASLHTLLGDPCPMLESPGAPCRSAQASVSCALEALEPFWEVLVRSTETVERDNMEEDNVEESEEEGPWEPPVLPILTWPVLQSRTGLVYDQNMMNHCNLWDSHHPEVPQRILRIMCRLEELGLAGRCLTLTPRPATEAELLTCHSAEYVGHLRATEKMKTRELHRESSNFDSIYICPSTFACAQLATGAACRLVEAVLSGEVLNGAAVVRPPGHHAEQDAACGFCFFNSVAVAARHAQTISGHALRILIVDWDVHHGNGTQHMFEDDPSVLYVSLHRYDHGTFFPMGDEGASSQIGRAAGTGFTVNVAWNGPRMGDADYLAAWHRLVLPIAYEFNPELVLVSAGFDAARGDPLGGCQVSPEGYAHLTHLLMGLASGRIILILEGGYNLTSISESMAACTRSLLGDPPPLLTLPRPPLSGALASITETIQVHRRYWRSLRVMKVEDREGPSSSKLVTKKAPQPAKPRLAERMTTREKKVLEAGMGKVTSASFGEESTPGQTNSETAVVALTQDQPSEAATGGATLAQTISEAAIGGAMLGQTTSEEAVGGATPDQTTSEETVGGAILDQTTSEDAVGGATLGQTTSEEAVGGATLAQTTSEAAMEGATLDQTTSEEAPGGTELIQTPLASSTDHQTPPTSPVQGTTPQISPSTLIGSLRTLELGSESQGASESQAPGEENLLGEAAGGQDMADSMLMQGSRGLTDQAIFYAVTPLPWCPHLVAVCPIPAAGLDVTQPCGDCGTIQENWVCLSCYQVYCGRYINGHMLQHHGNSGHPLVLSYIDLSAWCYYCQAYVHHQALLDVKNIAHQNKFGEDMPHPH

Take `CC(C)(C)c1ccc(-c2nc3cc(C(=O)NO)ccc3o2)cc1` [Example 4, 2-(4-tert-butylphenyl)-N-hydroxy-1,3-benzoxazole-5-carboxamide]: the IC50 came to 1100 nM at HDAC1; 19000 nM against HDAC2; 410 nM against HDAC3; 5 nM at HDAC6 (setting [5]); 5 nM on HDAC6 (setting [6]); 1000 nM on HDAC8. Further, the IC50 in experiment [1] was 0.49 µM; in [2] it was 0.38 µM; in the experiment on PaCa2 (pancreatic) cells, 0.75 µM; in experiment [3], 0.81 µM; in experiment [4], above 20 µM.

For the molecule `O=C(NO)c1ccc2oc(-c3ccc(OC(F)(F)F)cc3)nc2c1` [Example 9, N-hydroxy-2-[4-(trifluoromethoxy)phenyl]-1,3-benzoxazole-5-carboxamide], the IC50 on HDAC1 was 6000 nM; against HDAC2 it was 76000 nM; at HDAC3, 1700 nM; on HDAC6 (setting [6]), 38 nM; at HDAC8, 800 nM; in experiment [1] it was 0.91 µM. Moreover, the IC50 in experiment [2] was 0.9 µM; in the experiment with PaCa2 (pancreatic) cells it was 1.9 µM; in experiment [3], 1.4 µM; in experiment [4], above 20 µM.

`O=C(NO)c1ccc2oc(-c3ccc(-c4ccccc4F)cc3)nc2c1` [Example 21, 2-(2′-Fluorobiphenyl-4-yl)-N-hydroxy-1,3-benzoxazole-5-carboxamide]: the IC50 was 5600 nM on HDAC1; above 200000 nM at HDAC2; 1800 nM on HDAC3; 28 nM at HDAC6 (setting [5]); 28 nM on HDAC6 (setting [6]); 700 nM against HDAC8. The IC50 is 0.94 µM in experiment [1]; 0.64 µM in experiment [2]; 1.2 µM with PaCa2 (pancreatic) cells; 1.1 µM in experiment [3]; above 20 µM in experiment [4].

`COc1ccncc1-c1ccc(-c2nc3cc(C(=O)NO)ccc3o2)cc1` [Example 26, N-hydroxy-2-[4-(4-methoxypyridin-3-yl)phenyl]-1,3-benzoxazole-5-carboxamide]: the 50% inhibitory concentration (IC50) on HDAC6 (setting [5]) was 5 nM; in experiment [1], 1.1 µM; in experiment [2], 0.61 µM; in the experiment on PaCa2 (pancreatic) cells it was 1.1 µM; in [3], 1.7 µM; in [4] it was above 20 µM.

Turning to `COc1ccc(-c2ccc(-c3nc4cc(C(=O)NO)ccc4o3)cc2)cn1` [Example 27, N-hydroxy-2-[4-(6-methoxypyridin-3-yl)phenyl]-1,3-benzoxazole-5-carboxamide], the IC50 at HDAC1 was above 200000 nM; against HDAC2, above 200000 nM; on HDAC3, 820 nM; on HDAC6 (setting [6]), 3 nM; on HDAC8, above 2000 nM; in experiment [1], 0.89 µM. In addition, the IC50 in [2] is 0.62 µM; in the experiment with PaCa2 (pancreatic) cells it was 0.81 µM; in experiment [3], 3.1 µM; in experiment [4] it was above 20 µM.

Consider `COc1ncccc1-c1ccc(-c2nc3cc(C(=O)NO)ccc3o2)cc1` [Example 28, N-hydroxy-2-[4-(2-methoxypyridin-3-yl)phenyl]-1,3-benzoxazole-5-carboxamide], for which the IC50 against HDAC1 came out at 5600 nM; against HDAC2, 28000 nM; on HDAC3 it was 1800 nM; at HDAC6 (setting [6]), 28 nM; against HDAC8 it was 700 nM; in [1], 0.62 µM. Also, the IC50 in experiment [2] is 0.38 µM; with PaCa2 (pancreatic) cells it was 1 µM; in experiment [3], 0.75 µM; in [4] it was above 20 µM.

For `CC(C)c1ccc(Nc2nc3cc(C(=O)NO)ccc3o2)cc1` [Example 43, N-hydroxy-2-{[4-(1-methylethyl)phenyl]amino}-1,3-benzoxazole-5-carboxamide], the IC50 on HDAC1 is 5100 nM; against HDAC2, above 200000 nM; against HDAC3, 3500 nM; at HDAC6 (setting [6]), 51 nM; against HDAC8, 200 nM; in experiment [1], 1.1 µM. The 50% inhibitory concentration (IC50) in experiment [2] is 0.68 µM; with PaCa2 (pancreatic) cells, 1.7 µM; in experiment [3] it was 0.37 µM; in experiment [4], above 20 µM.

Regarding `CC(C)c1ccc(-c2cc3ccc(C(=O)NO)cc3[nH]2)cc1` [Example 59, N-Hydroxy-2-[4-(1-methylethyl)phenyl]-1H-indole-6-carboxamide], the IC50 is 1.7 µM in experiment [1]; 0.66 µM in experiment [2]; 1.4 µM with PaCa2 (pancreatic) cells; 1.2 µM in experiment [3]; above 20 µM in experiment [4].

Take `CC(C)c1ccc(-c2nc3ccc(C(=O)NO)cc3s2)cc1` [Example 61]: the IC50 in experiment [1] is 1.1 µM; in experiment [2] it was 0.81 µM; in the experiment with PaCa2 (pancreatic) cells it was 0.9 µM; in experiment [3] it was 1.8 µM; in experiment [4], above 20 µM.

`O=C(NO)c1ccc2sc(-c3cccc(C(F)(F)F)c3)cc2c1` [Example 90, N-hydroxy-2-[3-(trifluoromethyl)phenyl]-1-benzothiophene-5-carboxamide]: the IC50 on HDAC6 (setting [5]) was 28 nM; in experiment [1], 0.58 µM; in [2], 0.5 µM; in the experiment with PaCa2 (pancreatic) cells it was 0.8 µM; in experiment [3] it was 0.81 µM; in experiment [4], above 20 µM.

Consider `O=C(NO)c1ccc2sc(-c3ccc(OC(F)(F)F)cc3)cc2c1` [Example 102, N-hydroxy-2-[4-(trifluoromethoxy)phenyl]-1-benzothiophene-5-carboxamide], for which the 50% inhibitory concentration (IC50) is 70 nM at HDAC6 (setting [5]); 0.64 µM in [1]; 0.47 µM in experiment [2]; 2.48 µM in the experiment with PaCa2 (pancreatic) cells; 0.41 µM in [3]; above 20 µM in experiment [4].

As to `CC(C)(C)c1ccc(-c2cc3cc(C(=O)NO)ccc3s2)cc1` [Example 103, 2-(4-tert-butylphenyl)-N-hydroxy-1-benzothiophene-5-carboxamide], the 50% inhibitory concentration (IC50) in [1] is 0.55 µM; in [2], 0.49 µM; in the experiment with PaCa2 (pancreatic) cells, 1.46 µM; in experiment [3], 0.6 µM; in experiment [4], above 20 µM.

With `CC(C)Oc1ccc(-c2cc3cc(C(=O)NO)ccc3s2)cc1Cl` [Example 107, 2-[3-chloro-4-(1-methylethoxy)phenyl]-N-hydroxy-1-benzothiophene-5-carboxamide], the IC50 in experiment [1] was 0.42 µM; in experiment [2], 0.37 µM; in the experiment with PaCa2 (pancreatic) cells, 1.3 µM; in [3], 0.42 µM; in [4], above 20 µM.

On to `CC(C)c1ccc(-c2cc3cc(C(=O)NO)ccc3o2)cc1` [Example 111, N-Hydroxy-2-[4-(1-methylethyl)phenyl]-1-benzofuran-5-carboxamide], for which the IC50 was 0.67 µM in experiment [1]; 0.67 µM in experiment [2]; 1.3 µM in the experiment with PaCa2 (pancreatic) cells; 1.2 µM in [3]; above 20 µM in experiment [4].

As for `CC(C)c1ccc(-c2cc3ccc(C(=O)NO)cc3o2)cc1` [Example 112, N-Hydroxy-2-[4-(1-methylethyl)phenyl]-1-benzofuran-6-carboxamide], the IC50 on HDAC6 (setting [5]) is 7 nM; in experiment [1], 0.58 µM; in experiment [2], 0.46 µM; in the experiment with PaCa2 (pancreatic) cells, 0.89 µM; in experiment [3] it was 1.2 µM; in experiment [4], above 20 µM.

Turning to `COc1ccc(F)cc1-c1ccc(-c2nc3cc(C(=O)NO)ccc3o2)c(F)c1` [Example 193, 2-(3,5′-difluoro-2′-methoxybiphenyl-4-yl)-N-hydroxy-1,3-benzoxazole-5-carboxamide], the IC50 in experiment [1] is 1.2 µM; in experiment [2] it was 2.3 µM; with PaCa2 (pancreatic) cells it was 2.2 µM; in experiment [3], 0.98 µM; in [4], above 20 µM.

In general, IC50 refers to the midpoint of a concentration-inhibition curve.
